Data on six compounds can be found in ChEMBL document CHEMBL1123416, “Imidazo[2,1-b]benzothiazoles. 2. New immunosuppressive agents” (1986).

The inhibition in vivo is the change of the read-out against control, counted positive when it falls.

Structures are written as SMILES. “And” between values parts separate entries of the source, which are not always exact repeats. Equal entries are not always repeated.

Common to all, as to assay type: functional
The test system of assay [1] is Mus musculus. Description: Compound was tested for its significant suppressive activity of delayed type hypersensitivity (DTH) with out inhibition of humoral immunity in mice by oral administration at dose of 12.5 mg/kg.
Assay [2] concerns Mus musculus. Description: Compound was tested for its significant suppressive activity of delayed type hypersensitivity (DTH) with out inhibition of humoral immunity in mice by oral administration at dose of 100 mg/kg.
In assay [3] the test system is Mus musculus. Description: Compound was tested for its significant suppressive activity of delayed type hypersensitivity (DTH) with out inhibition of humoral immunity in mice by oral administration at dose of 200 mg/kg.
The subject of assay [4] is Mus musculus. As to the kind of experiment: Compound was tested for its significant suppressive activity of delayed type hypersensitivity (DTH) with out inhibition of humoral immunity in mice by oral administration at dose of 25 mg/kg.
Assay [5] concerns Mus musculus. As to the kind of experiment: Significant suppressive activity of delayed type hypersensitivity (DTH) with out inhibition of humoral immunity in mice by oral administration at dose of 50 mg/kg.
In assay [6] the test system is Mus musculus. As to the kind of experiment: Significant suppressive activity of delayed type hypersensitivity (DTH) with out inhibition of humoral immunity in mice by oral administration at dose of 400 mg/kg.
For assay [7], the system named is Mus musculus. Description: Effect on the plaque forming cell formation in BDF1 mice after peroral administration at dose of 100 mg/kg. To be noted: route oral.
The test system of assay [8] is Mus musculus. As to the kind of experiment: Effect on the plaque forming cell formation in BDF1 mice after peroral administration at dose of 10 mg/kg. As to conditions: route oral.
The subject of assay [9] is Mus musculus. Description: Effect on the plaque forming cell formation in BDF1 mice after peroral administration at dose of 300 mg/kg. To be noted: route oral.
The test system of assay [10] is Mus musculus. As to the kind of experiment: Effect on the plaque forming cell formation in BDF1 mice after peroral administration at dose of 30 mg/kg. To be noted: route oral.
In assay [11] the test system is Mus musculus. As to the kind of experiment: The compound was tested for its significant suppressive activity of delayed type hypersensitivity (DTH) with out inhibition of humoral immunity in mice by oral administration at dose of 400 mg/kg.

On to `CN(C)c1cccc(-c2cn3c(n2)sc2ccccc23)c1`, for which, in the assay on Mus musculus [1], the “Increase in ear thickness” value is 3.4 1/100mm and the inhibition in vivo at 12.5 mg/kg is 17%. For the same compound, in the assay on Mus musculus [2], the “Increase in ear thickness” value is recorded as 3.2 1/100mm and the inhibition in vivo at 100 mg/kg turned out to be 21%.

For the compound `CC(=O)Nc1ccc(-c2cn3c(n2)sc2ccccc23)cc1`, in the assay on Mus musculus [3], the “Increase in ear thickness” value is on record as 3 1/100mm and the inhibition in vivo at 200 mg/kg amounted to 9.1%. Further, the inhibition in vivo at 25 mg/kg with Mus musculus [4] is -9.1%. Also, in the assay with Mus musculus [5], the “Increase in ear thickness” value is reported as 3.6 1/100mm.

`Oc1ccc(-c2cn3c(n2)sc2ccccc23)cc1O`: in the assay with Mus musculus [3], the “Increase in ear thickness” value is given as 3.1 1/100mm and the inhibition in vivo at 200 mg/kg was 3.1%. Besides, in the assay with Mus musculus [4], the “Increase in ear thickness” value was 2.5 1/100mm and the inhibition in vivo at 25 mg/kg was 21.9%.

`Oc1cccc(-c2cn3c(n2)sc2ccccc23)c1`: the “Increase in ear thickness” value with Mus musculus [3] is 2.8 1/100mm; in the assay on Mus musculus [4] it was 5.3 1/100mm; with Mus musculus [6] (400 mg/kg), 0.9 1/100mm and 1.3 1/100mm; in the assay with Mus musculus [5] (50 mg/kg), 3.4 1/100mm and 3.9 1/100mm; in the assay with Mus musculus [2], 2.4 1/100mm. Further, the inhibition in vivo at 200 mg/kg in the assay with Mus musculus [3] was determined as 54.8%. Moreover, the inhibition in vivo at 400 mg/kg with Mus musculus [6] was found to be 79%. In addition, the inhibition in vivo at 50 mg/kg with Mus musculus [5] turned out to be 37.1%. The inhibition in vivo at 100 mg/kg in the assay on Mus musculus [2] came out at 61.3%. Moreover, the PFC/splleen turned out to be 0.198 in the assay with Mus musculus [7], 0.177 with Mus musculus [8], 0.182 with Mus musculus [9] and 0.138 in the assay with Mus musculus [10].

For `Cc1ccc(-c2cn3c(n2)sc2ccccc23)cc1`, in the assay with Mus musculus [5], the “Increase in ear thickness” value is 5.8 1/100mm and the inhibition in vivo at 50 mg/kg is -11.5%. Also, in the assay with Mus musculus [11], the “Increase in ear thickness” value is given as 5.3 1/100mm and the inhibition in vivo at 400 mg/kg was -1.9%.

On to `O=CNc1cccc(-c2cn3c(n2)sc2ccccc23)c1`, for which, in the assay on Mus musculus [3], the “Increase in ear thickness” value is reported as 2.2 1/100mm and the inhibition in vivo at 200 mg/kg turned out to be 48.8%. In the assay on Mus musculus [4], the “Increase in ear thickness” value is 2.6 1/100mm and the inhibition in vivo at 25 mg/kg is 39.5%.
